{"source": "patent US4840785A", "about": "“Mammal intestinal hormone precursor and its use” (priority 1985, dated 1989)", "key": {"[1]": {"system": "pancreas of the anesthetized cat", "details": "standard used for comparison; cited from earlier work"}, "[2]": {"system": "pancreas of the anesthetized cat", "assay": "secretin bioassay: stimulation of secretion of alkali in the pancreatic juice in the anesthetized cat", "type": "in vivo", "description": "The biological activity was measured by the ability to stimulate the secretion of alkali in the pancreatic juice in the anesthetized cat (Mutt, v. and Soderberg, U. On the assay of secretin. Ark.Kem. 15, 63-68, 1959). The sample was compared to a secretin standard with an established activity of 3500 units per mg. […] Proteolytic fragmentation"}}, "note": "Several values for one entry are separate records, joined by “and”; a condition that tells them apart may be missing. Equal entries are not always repeated. No end group written: not given here.", "data": [{"substance": "secretin (HSDGTFTSELSRLRDSARLQRLLQGLV-NH2; UniProt P63298 33-59, looked up) [porcine secretin, intestinal hormone peptide composed of 27 amino acid residues, C-terminal valine amidated]", "values": [{"measurement": "established activity of secretin standard", "setting": "[1]", "value": 3500, "unit": "units per mg"}, {"measurement": "ALKALI SECRETED", "setting": "[2]; Cat. 1, dose 47 pmole", "value": "130 μequiv. and 116 μequiv."}, {"measurement": "ALKALI SECRETED per dose", "setting": "[2]; Cat. 1, dose 47 pmole", "value": "2.7 μequiv.pmole and 2.5 μequiv.pmole"}, {"measurement": "ALKALI SECRETED", "setting": "[2]; Cat. 1, dose 94 pmole", "value": "182 μequiv. and 170 μequiv."}, {"measurement": "ALKALI SECRETED per dose", "setting": "[2]; Cat. 1, dose 94 pmole", "value": "1.9 μequiv.pmole and 1.8 μequiv.pmole"}, {"measurement": "ALKALI SECRETED", "setting": "[2]; Cat. 2, dose 47 pmole", "value": 110, "unit": "μequiv."}, {"measurement": "ALKALI SECRETED per dose", "setting": "[2]; Cat. 2, dose 47 pmole", "value": 2.3, "unit": "μequiv.pmole"}, {"measurement": "ALKALI SECRETED", "setting": "[2]; Cat. 2, dose 94 pmole", "value": 150, "unit": "μequiv."}, {"measurement": "ALKALI SECRETED per dose", "setting": "[2]; Cat. 2, dose 94 pmole", "value": 1.6, "unit": "μequiv.pmole"}]}]}
